Results on seven compounds are retold here after patent publication US20210253598A1, “ARYL ANNULATED MACROCYCLIC INDOLE DERIVATIVES” (priority 2017, published 2021).

The Kd is the constant that tells how readily two partners part at equilibrium.

For data set [1] the following is noted: the molecule shown is the open-chain precursor, crosslinker bond, 11-membered ring.
Data set [2] concerns SUDHL5. Nature of the data set: Induction of cytotoxicity in SUDHL5 cells, CellTiter-Glo (Assay 6). Particulars: SUDHL5, 5 hours incubation, median, read-out: Cytotox SUDHL5 [M] (median). Format: cell-based. The procedure, abridged: (§1)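 Luminescent ATP read-out (CellTiter-Glo) after 5 h compound exposure at 37° C. Cells seeded the day before; medium-only wells as background; rim wells excluded.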

Data set [3] deals with SUDHL10. Nature of the data set: Induction of cytotoxicity in SUDHL10 cells, CellTiter-Glo (Assay 6). Format: cell-based. Particulars: SUDHL10, 5 hours incubation, median, read-out: Cytotox SUDHL10 [M] (median). The procedure, abridged:
as §1

Data set [4] addresses T1, MCL-1 (Homo sapiens, UniProt Q07820, K194A/K197A/R201A). Nature of the data set: Protein-compound interaction assay, surface plasmon resonance (SPR assay, Assay 8). Conditions: geometric mean; for Kd: KD [M]. Format: binding. From the text: Protein-Compound Interaction Assay (SPR Assay)
The ability of the compounds described in this invention to bind to MCL-1 may be determined using surface plasmon resonance (SPR). This allows for the quantification of binding in terms of the equilibrium dissociation constant (KD [M]), as well as association and dissociation rate constants (kon [1/M 1/s] and koff [1/s], respectively). The measurements may be performed using Biacore® T200 or Biacore® S200 instruments (GE Healthcare).
Briefly, carboxymethylated dextran biosensor chips (Series S Sensor Chip CM5, GE Healthcare) were activated with 1-ethyl-3-(3-dimethylaminopropyl)-carbodiimide hydrochloride (EDC) and N-hydroxysuccinimide (NHS) according to the supplier's instructions. MBP-MCL-1 was diluted in 1×PBS-P+ (GE Healthcare) and injected on the activated chip surface. Subsequently, a solution of 1 M ethanolamine-HCl (GE Healthcare) was injected to block unreacted groups, resulting in approximately 400-2500 response units (RU) of immobilized protein. A reference surface was generated by treatment with NHS-EDC and ethanolamine-HCl. […] Compounds were injected for 60 s followed by a dissociation time of up to 1000 s.
The double-referenced sensorgrams were fit to a simple reversible Langmuir 1:1 reaction mechanism as implemented in the Biacore® T200 and S200 evaluation software (T200 evaluation software version 2.0 and S200 evaluation software version 1.0, GE Healthcare).
In general terms: In SPR one partner is held on a chip, and binding of the other changes the refractive index at the surface.

Data set [5] deals with T1, MCL-1. Nature of the data set: Protein-protein interaction assay MCL-1/Noxa BH3 peptide, TR-FRET (MCL-1 assay, Assay 1). Conditions: MCL-1 Assay [M] (median), MBP-MCL-1 / Noxa BH3 peptide. Format: binding. The procedure, abridged: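 TR-FRET competition between compounds and a biotin-PEG Noxa BH3 tracer for 1 nM MBP-MCL-1 (residues 173-321). Incubation was 1 h at 22 °C in the dark, then overnight at 4 °C, in 50 mM Tris pH 7 buffer with KF and DTT, after a 10-min compound pre-equilibration. Normalized ratios were fitted with a 4-parameter Hill equation to give IC50.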

For data set [6], the system named is SUDHL5. Nature of the data set: Anti-proliferative effect in SUDHL5 cells, CellTiter-Glo (Assay 7). Format: cell-based. Particulars: SUDHL5, 72 hours incubation, CellTiter-Glo, median, read-out: Antiproli SUDHL5 [M] (median). The procedure, abridged: (§2)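 Cells were plated and incubated overnight at 37 °C alongside a day 0 reference plate, then exposed to compound for 72 h. Viability was read by CellTiter-Glo luminescence, and IC50s were calculated using day 0 values and DMSO controls as references.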
(In general: Cellular ATP, detected with luciferase, serves as a proxy for viable cell number.)

The test system of data set [7] is SUDHL10. Kind of data set: Induction of caspase-3/7 activity in SUDHL10 cells (Assay 4). Format: cell-based. Particulars: SUDHL10, 3 hours treatment, Caspase-Glo 3/7, median, read-out: Caspase SUDHL10 [M] (median). The procedure, abridged:
(§3)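 Luminescent Caspase-Glo 3/7 read-out in SUDHL5 and SUDHL10 cells after 3 h compound exposure at 37 °C, followed by 1 h reagent incubation.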

In data set [8] the test system is SUDHL5. Nature of the data set: Induction of caspase-3/7 activity in SUDHL5 cells (Assay 4). Format: cell-based. Particulars: SUDHL5, 3 hours treatment, Caspase-Glo 3/7, median, read-out: Caspase SUDHL5 [M] (median). Put shortly: as §3
The next data set has as its target BCL-2 (Homo sapiens, UniProt P10415). Nature of the data set: Protein-protein interaction assay BCL-2/Bad BH3 peptide, TR-FRET (BCL-2 assay, Assay 3). Format: binding. Particulars: His-BCL-2 / Bad BH3 peptide, median. A general note: In TR-FRET formats the signal depends on donor and acceptor labels being close together.
For a further data set, the target named is BCL-XL (Homo sapiens, UniProt Q07817). Kind of data set: Protein-protein interaction assay BCL-XL/Bad BH3 peptide, TR-FRET (BCL-XL assay, Assay 2). Conditions: His-BCL-XL / Bad BH3 peptide, median. Format: binding.
BCL-XL, sequence (Q07817 1-212): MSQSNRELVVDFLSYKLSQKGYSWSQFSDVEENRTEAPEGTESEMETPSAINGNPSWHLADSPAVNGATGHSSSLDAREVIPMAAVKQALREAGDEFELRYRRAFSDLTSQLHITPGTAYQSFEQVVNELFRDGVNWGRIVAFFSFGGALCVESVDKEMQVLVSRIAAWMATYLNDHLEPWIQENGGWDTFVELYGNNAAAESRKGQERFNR
In data set [9] the test system is SUDHL10. Kind of data set: Anti-proliferative effect in SUDHL10 cells, CellTiter-Glo (Assay 7). Format: cell-based. Particulars: Homo sapiens, SU-DHL10, SUDHL10, 72 hours incubation, median, read-out: Antiproli SUDHL10 [M] (median). The protocol:
Assessment of the Anti-Proliferative Effect of Compounds in Different Cell Lines
The impact of compounds on the proliferation of different cell lines was assessed using the CellTiter-Glo® Luminescent Cell Viability reagent from Promega (G7573).
In parallel, cells were plated in a reference (day 0) plate for time zero determination. Cells were incubated in a humidified incubator at 37° C. overnight.
Rim wells were excluded. The cells were incubated for 72 hours in a humidified incubator at 37° C. The day 0 plate was measured by adding 30 μL/well of CTG solution (CellTiter-Glo® Luminescent Cell Viability reagent, Promega G7573) to time zero wells in the reference plate followed by a 10 minutes incubation and luminescence reading at 0.1 ms. using the PHERAstar FS microplate reader (BMG Labtech).
After 72 hours incubation, the treated plates were measured in the same way as the day 0 plate mentioned above. The Bella DRC Master Sheet was used to calculate IC50s, with CI=day 0 values and C0=DMSO control values.

The next data set relates to MV-4-11. Nature of the data set: Anti-proliferative effect in MV-4-11 cells, CellTiter-Glo (Assay 7). Format: cell-based. Conditions: MV-4-11, 72 hours incubation, CellTiter-Glo, several values per example, read-out: Antiproli MV-4-11. The procedure, abridged: as §2
The subject of the next data set is AMO-1. Nature of the data set: Anti-proliferative effect in AMO-1 cells, CellTiter-Glo (Assay 7). Format: cell-based. Particulars: AMO-1, 72 hours incubation, CellTiter-Glo, several values per example, read-out: Antiproli AMO-1. Put shortly: as §2
Setting [10] is: SPR, immobilized MBP-MCL-1, 25° C.

Where “and” joins values, the source holds several entries; their conditions need not be identical. Equal entries are not always repeated. Structures can show the parent of a compound that is named as a salt. Where two headings read alike, the source gives them in different places.

BCL-2, sequence (P10415 1-211): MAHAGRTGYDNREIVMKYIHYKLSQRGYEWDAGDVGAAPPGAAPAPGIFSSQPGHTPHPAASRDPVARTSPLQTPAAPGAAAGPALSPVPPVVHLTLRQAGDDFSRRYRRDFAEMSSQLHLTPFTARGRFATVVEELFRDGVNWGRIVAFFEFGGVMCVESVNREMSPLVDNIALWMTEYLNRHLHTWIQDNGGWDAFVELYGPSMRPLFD
T1 sequence (Q07820 173-321 K194A/K197A/R201A, looked up): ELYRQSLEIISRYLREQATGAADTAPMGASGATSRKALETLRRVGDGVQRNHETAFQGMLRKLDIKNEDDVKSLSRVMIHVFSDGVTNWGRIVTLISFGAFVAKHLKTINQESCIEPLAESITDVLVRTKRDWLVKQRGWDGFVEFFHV

For the compound `CCOC(=O)c1[nH]c2c(-c3c(CO)nn(C)c3CC)c(Cl)ccc2c1CCCOc1cccc2cc(F)ccc12`, the ring closure, isolated yield in data set [1] (1,2-bis(bromomethyl)benzene/Cs2CO3, THF/MeCN, 36.4 mM, 50.0 °C) was 94%.
Take `Cc1c2c(nn1C)COCc1ccccc1Cn1c(C(=O)O)c(CCCOc3cccc4ccccc34)c3cccc-2c31` (single isomer, unassigned; enantiomer 2) [Example 3, 4,5-Dimethyl-17-[3-(naphthalen-1-yloxy)propyl]-5,7,9,14-tetrahydroindolo[7,1-fg]pyrazolo[3,4-d][2,8]benzoxazacycloundecine-16-carboxylic acid-N-ethylethanamine Salt (Enantiomer 2)]: the IC50 in the data set on SUDHL5 [2] is 8.3e-06 M; with SUDHL10 [3], above 3.3e-05 M; on MCL-1 [5], 2.7e-08 M; in the data set on SUDHL5 [6] it was 7.7e-06 M. The compound also showed a Kd on MCL-1 [4] (setting [10]) of 1.7e-07 M. Besides, the “koff” value at MCL-1 [4] (setting [10]) worked out at 0.046 s⁻¹. The “kon [1/M 1/s]” value on MCL-1 [4] (setting [10]) is on record as 2.8E5 1/M 1/s. The EC50 was above 3.3e-05 M in the data set on SUDHL10 [7] and above 1.2e-05 M in the data set with SUDHL5 [8].
Turning to `CCOC(=O)c1[nH]c2c(-c3c(CC)nn(C)c3CO)c(Cl)ccc2c1CCCOc1cccc2cc(F)ccc12`, in data set [1] (1,2-bis(bromomethyl)benzene/Cs2CO3, THF/MeCN, 35.9 mM, 50.0 °C), the ring closure, isolated yield amounted to 62%.
Regarding `CCOC(=O)c1[nH]c2c(-c3c(CO)nn(C)c3C)c(Cl)ccc2c1CCCOc1cccc2ccccc12`, the ring closure, isolated yield in data set [1] (2,3-bis(chloromethyl)pyrazine/Cs2CO3/NaI, MeCN, 167.0 mM, 70.0 °C) was 13%; in data set [1] (2,3-bis(chloromethyl)pyridine HCl/Cs2CO3/NaI, MeCN, 94.0 mM, 75.0 °C), 10%.
As for `Cc1c2c(nn1C)COCc1ccccc1Cn1c(C(=O)O)c(CCCOc3cccc4ccccc34)c3cccc-2c31` (single isomer, unassigned; enantiomer 1) [Example 2, 4,5-Dimethyl-17-[3-(naphthalen-1-yloxy)propyl]-5,7,9,14-tetrahydroindolo[7,1-fg]pyrazolo[3,4-d][2,8]benzoxazacycloundecine-16-carboxylic acid-N-ethylethanamine Salt (Enantiomer 1)], the IC50 in the data set on SUDHL5 [2] is 2.3e-06 M; with SUDHL10 [3], 7.3e-06 M; against BCL-2 it was above 20 µM; against MCL-1 [5], 2.3e-09 M; with SUDHL5 [6], 2.9e-06 M; against BCL-XL, above 20 µM. The Kd on MCL-1 [4] (setting [10]) worked out at 6e-09 M. In addition, the “kon [1/M 1/s]” value at MCL-1 [4] (setting [10]) is 1.1E7 1/M 1/s. Moreover, the koff on MCL-1 [4] (read-out: koff [1/s], SPR, immobilized MBP-MCL-1, 25° C.) stood at 0.068 s⁻¹. The EC50 in the data set with SUDHL10 [7] turned out to be 7.7e-06 M; in the data set on SUDHL5 [8] it was 2e-06 M.
In the case of `CCc1nn(C)c2c1-c1c(F)ccc3c(CCCOc4cccc5cc(F)ccc45)c(C(=O)O)n(c13)Cc1ccccc1COC2` (racemic) [Example 90, (rac)-14-Ethyl-15-fluoro-1-(3-((6-fluoronaphthalen-1-yl)oxy)propyl)-12-methyl-4,9,11,12-tetrahydrobenzo[3,4]pyrazolo[4′,3′:9,10][1,6]oxaazacycloundecino[8,7,6-hi]indole-2-carboxylic Acid], the IC50 in the data set on SUDHL10 [9] is 2.1e-06 M; against BCL-2 it was 17.8 µM; in the data set on MV-4-11 (Homo sapiens, MV4-11, 72 h), 4.98 µM; in the data set with MV-4-11, 8.53 µM and 6.99 µM; at MCL-1 [5], 3.2e-09 M; in the data set with SUDHL5 [6] (Homo sapiens, SU-DHL-5, 72 h), 2e-06 M. The IC50 at BCL-XL is above 20 µM; in the data set with AMO-1, 10.3 µM and 6.91 µM; in the data set on AMO-1 (Homo sapiens, AMO1, 72 h), 5.58 µM. Moreover, the EC50 in the data set with SUDHL10 [7] (Homo sapiens, SU-DHL10, 3 h) is 6.6e-06 M; in the data set with SUDHL5 [8] (Homo sapiens, SU-DHL-5, 3 h), 1.4e-06 M.
Regarding `Cc1nn(C)c2c1-c1c(F)ccc3c(CCCOc4cccc5cc(F)ccc45)c(C(=O)O)n(c13)Cc1ccccc1COC2` (racemic) [Example 81, (rac)-15-Fluoro-1-(3-((6-fluoronaphthalen-1-yl)oxy)propyl)-12,14-dimethyl-4,9,11,12-tetrahydrobenzo[3,4]pyrazolo[4′,3′:9,10][1]oxa[6]azacycloundecino[8,7,6-hi]indole-2-carboxylic Acid], the IC50 in the data set on SUDHL5 [2] (Homo sapiens, SU-DHL-5, 5 h) is 2.5e-06 M; in the data set with SUDHL10 [3] (Homo sapiens, SU-DHL10, 5 h), 4e-06 M; in the data set with SUDHL10 [9] it was 3e-06 M; on BCL-2, 18 µM; in the data set on MV-4-11 (Homo sapiens, MV4-11, 72 h), 7.69 µM; in the data set on MV-4-11 it was 7.82 µM and 6.41 µM. Also, the IC50 against MCL-1 [5] is 4.6e-09 M; in the data set with SUDHL5 [6] (Homo sapiens, SU-DHL-5, 72 h), 3.3e-06 M; at BCL-XL it was above 20 µM; in the data set on AMO-1 it was 7.08 µM and 4.13 µM; with AMO-1 (Homo sapiens, AMO1, 72 h) it was 6.52 µM. Also, the EC50 in the data set on SUDHL10 [7] (Homo sapiens, SU-DHL10, 3 h) came to 5.2e-06 M; with SUDHL5 [8] (Homo sapiens, SU-DHL-5, 3 h), 2.1e-06 M.
